Laboratory results: patent publication US6596703B1, “Promotion of wound healing utilizing steroids having reduced deteriorous systemic side effects typical of glucocorticoids, mineralocorticoids and sex steroids” (Jagotec AG, priority 1997, dated 2003)
Entries after “also recorded” stand apart in the source; their conditions may differ. Read-outs that look alike come from different tables or passages of the source.

Key:
[1] = test system: murine chronic granulomatous air pouch; test: Inflammation-induced angiogenesis in the murine chronic granulomatous air pouch, s.c. dosing from induction (day 0) to day 6; format: in vivo, mice; details: for Vascular Index: mean ± s.e.m.; for angiostatic action: administered alone s.c. 1 mg/kg, no heparin, prophylactic dosing (Tables 1, 2)
Protocol: (§1) Chronic granulomatous air pouches were raised in mice by known methods (the reader is referred to PCT/CA94/00207 at page 16 for an experimental method in this regard) utilizing 0.5 ml Freund's Complete adjuvant with 0.1% croton oil injected into 1 day old air pouches. Animals were dosed with saline/0.01% DMSO either subcutaneously (s.c.) into the nape of the neck, or with saline applied topically in 0.1 ml 2.5% hyaluronan. Vascular casts incorporating carmine in gelatin were formed at termination, the tissues weighed dry (mg), papain digested, and the carmine content (μg) determined by spectrophotometric assay. Vascularity was calculated as the Vascularity Index (μg/mg). Results are expressed as means±s.e.m.
Investigation of the action of tetrahydrocortisol, tetrahydrocortisone and tetrahydrocortexolone and the like on inflammation-induced angiogenesis in the murine chronic granulomatous air pouch was pursued. Groups of mice (n=8-13) were dosed with tetrahydrocortisol, tetrahydrocortisone or tetrahydrocortexolone or the like (0.1-3.0 mg/kg in 0.1 ml saline/0.01% DMSO, s.c) daily from induction (day 0) to termination on day 6. Controls were dosed with 0.1 ml saline/0.01% DMSO subcutaneously.
Investigation of the action of angiostatic and anti-inflammatory steroids on inflammation-induced angiogenesis in the murine chronic granulomatous air pouch was pursued. Groups of mice (n=8-13) were treated with the steroids at 1.0 mg/kg (0.1 ml saline/0.01% DMSO, s.c), except of dexamethasone at (0.2 mg/kg), daily from the day of induction (day 0) to termination on day 6. Controls were given 0.1 ml saline/0.01% DMSO s.c. (Key: Tetrahydrocortisol (TH-F), Tetrahydrocortisone (TH-E).

[2] = test system: murine chronic granulomatous air pouch; test: Inflammatory-induced angiogenesis in the murine chronic granulomatous air pouch, topical application in 2.5% hyaluronan; format: in vivo, mice; details: for effect on angiogenesis: topical application (1 mg/kg) in 2.5% hyaluronan; for Vascular Index: 0.1 ml 2.5% hyaluronan alone topically daily day 0 to day 6
Protocol: as §1
(§2) Investigation of the action of topical tetrahydrocortisol, tetrahydrocortisone, tetrahydrocortexolone and the like on inflammatory-induced angiogenesis in the murine chronic granulomatous air pouch was pursued. Groups of mice (n=8-13) were depilated and the inflammation induced 4 days later. Tetrahydrocortisol (TH-F) and tetrahydrocortisone (TH-E) were applied topically (1 mg/kg) in 2.5% hyaluronan (0.1 ml) daily from the day of induction (day 0) to termination (day 6). Controls were dosed with 0.1 ml 2.5% hyaluronan alone.
as §2, with “tetrahydrocortisone and” for “tetrahydrocortisone,”, “was” for “and tetrahydrocortisone (TH-E) were”, “with” for “(1 mg/kg) in”, “ml of composition 0.1-1.0 mg of tetrahydrocortisol/kg) by weight” for “ml)”

[3] = test system: established 7-day old vasculature of the murine chronic granulomatous air pouch; test: Established 7-day old vasculature of the murine chronic granulomatous air pouch, s.c. dosing from day 7 to day 14 or 21; format: in vivo, mice; details: for Vascular Index: Table 3
Protocol: as §1
Investigation of the action of tetrahydrocortisol, tetrahydrocortisone and tetrahydrocortexolone and the like on the established 7-day old vasculature of the murine chronic granulomatous air pouch was pursued. Groups of mice were dosed with tetrahydrocortisol, tetrahydrocortisone or tetrahydrocortexolone or the like (0.1-3.0 mg/kg in 0.1 ml saline/0.01% DMSO, s.c) daily from day 7 to termination at day 14 or day 21. Controls were dosed with 0.1 ml saline (0.01% DMSO alone).

[4] = test system: murine chronic granulomatous air pouch; details: s.c. at 1 mg/kg; reference (1); cited from earlier work
[5] = Table 1, 1 mg/kg s.c. daily day 0 to day 6
[6] = Table 2, 1.0 mg/kg s.c. daily day 0 to day 6

Compound: C[C@]12CCC(=O)C=C1CC[C@@H]1[C@@H]2C(=O)C[C@@]2(C)[C@H]1CC[C@]2(O)C(=O)CO [Cortisone, cortisone]
- Vascular Index [1, 5]: 8.23 ± 0.62 µg/mg
- angiostatic action [1]: inactive
- effect on angiogenesis [2]: angiostatic

Compound: C[C@]12CCC(O)C[C@H]1CC[C@@H]1[C@@H]2C(=O)C[C@@]2(C)[C@H]1CC[C@]2(O)C(=O)CO (some centres unmarked) [TH-E, 5-pregnane-3,17,21-triol-11,20-dione]
- Vascular Index ([3]; 0.1 mg/kg s.c. daily from day 7, termination Day 14): 18.18 ± 1.97 µg/mg
- Vascular Index ([3]; 0.1 mg/kg s.c. daily from day 7, termination Day 21): 18.59 ± 1.84 µg/mg
- Vascular Index ([3]; 0.3 mg/kg s.c. daily from day 7, termination Day 14): 20.38 ± 1.91 µg/mg
- Vascular Index ([3]; 0.3 mg/kg s.c. daily from day 7, termination Day 21): 31.33 ± 2.91 µg/mg
- Vascular Index ([3]; 1.0 mg/kg s.c. daily from day 7, termination Day 14): 22.49 ± 3.77 µg/mg
- Vascular Index ([3]; 1.0 mg/kg s.c. daily from day 7, termination Day 21): 25.75 ± 2.40 µg/mg
- Vascular Index ([3]; 3.0 mg/kg s.c. daily from day 7, termination Day 14): 18.87 ± 1.29 µg/mg
- Vascular Index ([3]; 3.0 mg/kg s.c. daily from day 7, termination Day 21): 25.91 ± 1.85 µg/mg
- angiostatic action ([3]; s.c., no heparin, therapeutic dosing (Table 3)): without effect
- Vascular Index [1, 6]: 18.860 ± 1.830 µg/mg
- angiostatic action [1]: without effect
- effect on angiogenesis [4]: capable of inhibiting angiogenesis
- effect on angiogenesis ([2]; listed as tetrahydrocortisone): significant acceleration of angiogenesis; also recorded: Definite angiogenesis action

Compound: C[C@]12CCC(O)CC1CC[C@@H]1[C@@H]2C(O)C[C@@]2(C)[C@H]1CC[C@]2(O)C(=O)CO (some centres unmarked) [TH-F, 5-pregnane-3,11,17,21-tetrol-20-one]
- Vascular Index [1, 5]: 5.29 ± 0.61 µg/mg
- Vascular Index [1, 6]: 13.088 ± 1.630 µg/mg
- angiostatic action [1]: decrease in vascularity
- effect on angiogenesis [4]: capable of inhibiting angiogenesis
- effect on angiogenesis ([2]; listed as tetrahydrocortisol): significant acceleration of angiogenesis; also recorded: Definite angiogenesis action
- dose relation of acceleration of angiogenesis ([2]; topical in 2.5% hyaluronan, 0.1-1.0 mg/kg (Table 5)): dose related

Compound: C[C@]12CC[C@@H](O)C[C@H]1CC[C@@H]1[C@@H]2CC[C@@]2(C)[C@H]1CC[C@]2(O)C(=O)CO [TH-S, tetrahydrocortexolone]
- effect on angiogenesis [4]: capable of inhibiting angiogenesis

Compound: heparin
- Vascular Index ([1]; Table 1, 1000 U p.o.): 7.93 ± 0.83 µg/mg

Compound: hyaluronan [HA]
- Vascular Index ([2]; Table 4): 11.180 ± 1.980 µg/mg
- Vascular Index ([2]; Table 5): 11.180 ± 1.98 µg/mg
